Measured values as given in patent US9238603B1, “Batch process for the preparation of cis-2,2,4,4-tetramethylcyclobutane-1,3-diol” (EASTMAN CHEMICAL COMPANY, priority 2014, dated 2016).

Assay: cis/trans solubility ratio of 2,2,4,4-tetramethylcyclobutane-1,3-diol in a solvent
Type: physicochemical
Protocol: The definition of cis/trans 2,2,4,4-tetramethylcyclobutane-1,3-diol solubility ratio is also known to one of ordinary skill in the art; in one embodiment, the cis/trans 2,2,4,4-tetramethylcyclobutane-1,3-diol solubility ratio can be defined as the ratio of the cis isomer solubility limit divided by the trans isomer solubility limit at a given temperature for a given solvent or solvents. For example, the cis/trans solubility ratio in water at 80° C. is about 1.0. For MIBC, the cis/trans solubility ratio at 80° C. is about 0.74.

- cis/trans solubility ratio (cis isomer solubility limit divided by trans isomer solubility limit) (in MIBC at 80° C.): about 0.74
- cis/trans solubility ratio (cis isomer solubility limit divided by trans isomer solubility limit) (in water at 80° C.): about 1.0
SMILES: CC1(C)C(O)C(C)(C)C1O (centres unmarked) [2,2,4,4-tetramethylcyclobutane-1,3-diol]
